Reference: patent US20040162339A1, “Heterocyclic biaryl compounds, pharmaceutical and cosmetic compositions containing them and uses thereof” (priority 1996, published 2004)

CCCCCCC1(c2ccc3c(c2)C(C)(C)CCC3(C)C)COc2cc(C(=O)O)ccc21 (centres unmarked)
melting point: 137 °C

CC1(C)CCC(C)(C)c2cc(C3(CC(=O)O)COc4cc(C(=O)O)ccc43)ccc21 (centres unmarked)
melting point: 268 °C
